Laboratory results: patent US7214792B2 (priority 1999, dated 2007)

system: LAB-1; assay: Antibiotic sensitivity testing of LAB-1; type: cell-based; conditions: LAB-1 organism
Procedure: A variety of biochemical tests were performed in order to identify the species and the genus of organism. The tests included: assessment of growth conditions, culture appearance, cell appearance and staining characteristics, optimal temperature and pH growth range, oxygen requirements, antibiotic sensitivity testing, tests for catalase and oxidase (using TAXOS N ? disks), amino acid utilization as carbon source, nitrogen fixation, motility test, and a variety of commercially available tests from MICRO-ID ? , OXYFERM ? , ENTEROTUBE ? and BIOLOG GN MICROPLATE ? .

Compound	Antibiotic Susceptibility Results
[H]/N=C(/N)N[C@H]1[C@H](O)[C@@H](O)[C@H](O[C@@H]2O[C@@H](C)[C@](O)(C=O)[C@H]2O[C@@H]2O[C@@H](CO)[C@H](O)[C@@H](O)[C@@H]2NC)[C@@H](N/C(N)=N\[H])[C@@H]1O [Streptomycin]	resistant
Penicillin	resistant
NCC[C@H](O)C(=O)N[C@@H]1C[C@H](N)[C@@H](O[C@H]2O[C@H](CN)[C@@H](O)[C@H](O)[C@H]2O)[C@H](O)[C@H]1O[C@H]1O[C@H](CO)[C@@H](O)[C@H](N)[C@H]1O [Amikacin]	sensitive
CO[C@@H]1[C@@H](OC(N)=O)[C@@H](O)[C@H](Oc2ccc3c(O)c(NC(=O)c4ccc(O)c(CC=C(C)C)c4)c(=O)oc3c2C)OC1(C)C [Novobiocin]	sensitive
CC1(C)S[C@@H]2[C@H](NC(=O)[C@H](N)c3ccccc3)C(=O)N2[C@H]1C(=O)O [Ampicillin]	resistant
Neomycin	sensitive
CC[C@H]1OC(=O)[C@H](C)[C@@H](O[C@H]2C[C@@](C)(OC)[C@@H](O)[C@H](C)O2)[C@H](C)[C@@H](O[C@@H]2O[C@H](C)C[C@H](N(C)C)[C@H]2O)[C@](C)(O)C[C@@H](C)C(=O)[C@H](C)[C@@H](O)[C@]1(C)O [Erythromycin]	resistant
Polymyxin B	sensitive
